From paper PMC6386617 (Molecular cell, 2018)

B1: (AG)5 polypurine RNA (ssRNA)
RNA: AGAGAGAGAG

Key:
human eIF4A1 (WT) [1] = biological target: human eIF4A1 (WT) (Homo sapiens, UniProt P60842); assay: UV crosslinking of γ […]-ATP; format: biochemical; conditions: 10 μM protein, 0.1 μM ATP, 37 °C (crosslinking); labelled compound
human eIF4A1 (WT) [2] = biological target: human eIF4A1 (WT) (Homo sapiens, UniProt P60842, F163L/I199M); assay: UV crosslinking of γ […]-ATP; format: biochemical; conditions: 10 μM protein, 0.1 μM ATP, 37 °C (crosslinking); labelled compound
eIF4A1 (19-406) = eIF4A1 (19-406) (Homo sapiens, UniProt P60842 19-406); assay: X-ray crystallography
eIF4A1 (19-406), sequence (P60842 19-406): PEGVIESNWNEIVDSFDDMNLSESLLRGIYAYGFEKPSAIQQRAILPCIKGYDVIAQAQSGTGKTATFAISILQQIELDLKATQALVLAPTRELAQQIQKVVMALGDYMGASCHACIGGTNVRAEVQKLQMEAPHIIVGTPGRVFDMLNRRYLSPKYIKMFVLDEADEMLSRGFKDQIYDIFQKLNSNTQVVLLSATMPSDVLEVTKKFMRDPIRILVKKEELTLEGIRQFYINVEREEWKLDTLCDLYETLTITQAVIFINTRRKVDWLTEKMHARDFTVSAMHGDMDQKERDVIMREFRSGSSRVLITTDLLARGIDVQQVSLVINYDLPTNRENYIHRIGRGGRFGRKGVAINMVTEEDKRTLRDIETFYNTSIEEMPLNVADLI

human eIF4A1 (WT) (Homo sapiens, UniProt P60842), sequence (P60842 2-406): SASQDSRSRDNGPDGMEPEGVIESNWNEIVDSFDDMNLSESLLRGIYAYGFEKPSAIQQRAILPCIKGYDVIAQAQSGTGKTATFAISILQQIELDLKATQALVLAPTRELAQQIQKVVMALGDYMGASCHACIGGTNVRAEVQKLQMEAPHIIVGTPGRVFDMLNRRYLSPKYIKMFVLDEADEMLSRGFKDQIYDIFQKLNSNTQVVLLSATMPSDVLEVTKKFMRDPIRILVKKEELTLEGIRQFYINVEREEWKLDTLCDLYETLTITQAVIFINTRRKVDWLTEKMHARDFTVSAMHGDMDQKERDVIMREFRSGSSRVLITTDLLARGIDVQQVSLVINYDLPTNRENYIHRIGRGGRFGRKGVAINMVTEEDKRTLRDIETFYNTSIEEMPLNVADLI
human eIF4A1 (WT) (Homo sapiens, UniProt P60842, F163L/I199M), sequence (P60842 2-406 F163L/I199M): as the sequence (P60842 2-406) above, with F162L, I198M counted along it

| Molecule | UV crosslinking of γ 32P-ATP; TLC ATPase assay (human eIF4A1 (WT) [1]) | UV crosslinking of γ 32P-ATP; TLC ATPase assay (human eIF4A1 (WT) [2]) | binding result (eIF4A1 (19-406)) |
| --- | --- | --- | --- |
| Nc1ncnc2c1ncn2[C@@H]1O[C@H](COP(=O)(O)OP(=O)(O)OP(=O)(O)O)[C@@H](O)[C@H]1O [ATP] | tested a variety of their biochemical properties: ATP binding, ATP hydrolysis | neither single nor double mutations disrupt the basic features of eIF4A1 |  |
| B1 |  |  | binds |
